From patent publication US20230302082A1, “AGENT FOR REVERSIBLE OPENING OF NEURAL VASCULAR BARRIER” (YAMAGUCHI UNIVERSITY, priority 2020, published 2023)
Counter-ions that a name gives are not always drawn.

Tests used:
neural vascular barrier = assay: Uptake of intravenously administered doxorubicin into cerebrum, liver and kidney with or without preadministration of CypA (doxorubicin fluorescence); assay type: in vivo, mouse
Description: Further, fluorescence emitted by doxorubicin was used to evaluate the uptake of doxorubicin into the cerebrum, the liver and the kidney. […] Fujifilm Wako Pure Chemical Corp.), an anticancer drug with low intracerebral penetration, was injected into caudal veins of mice with or without pre-injection of CypA (200 μg/kg). Pre-injection of CypA was performed intravenously 3 hours prior to the injection of doxorubicin. Mice were sacrificed 3 hours after the injection of doxorubicin hydrochloride, and the cerebrum, the liver, and the kidney were collected and embedded and frozen in OCT compound. Next, frozen sections of 30 μm thickness were prepared and observed under an LSM710 laser confocal microscope (Carl Zeiss AG).

[1] = test system: mouse retinal vasculature; assay: Claudin-5 expression in endothelial cell membranes of the retinal vasculature after intravenous CypA (immunofluorescence); assay type: in vivo; details: mouse retina, single intravenous injection 200 μg/kg
From the text: Based on the results of Example 1, a change in the barrier function caused by CypA administration was examined in vivo using a mouse retinal tissue. Note that the retina is a tissue that is formed as an outgrowth of the central neural system during the process of ontogeny and is a part of the central neural system like the brain. Since the vascular system of the retina can be two-dimensionally observed and evaluated over the entire length in the longitudinal direction, the retina was used as an analysis material representing the central neural system in the present example.
(§1) Seven-week-old male C57B6/N mice (Japan SLC, Inc.) were given a single intravenous injection (200 μg/kg) of CypA. A change in the expression level of claudin-5 localized in the endothelial cell membranes of the retinal vasculature and permeability of the retinal vasculature were measured 3, 6, and 24 hours after the […] injection. The change in the expression of claudin-5 was measured by immunofluorescence staining using the rabbit polyclonal antibodies against claudin-5 in the same manner as in Example 1. The above-mentioned measurement of the permeability of the retinal vasculature was performed as follows.

[2] = test system: mouse brain microvascular endothelial cell line bEnd.3 cells; assay: Immunofluorescence staining and quantification of claudin-5 signals on the cell membranes of monolayer-cultured bEnd.3 cells; assay type: cell-based
Description: (§2) In an in vitro system, mouse brain microvascular endothelial cell line bEnd.3 cells (obtained from the American Type Culture Collection) were grown as a monolayer at 37° C. under 5% CO^2 in Dulbecco's modified Eagle's medium containing 4500 mg/L glucose (Sigma-Aldrich) supplemented with 10% fetal bovine serum (FBS). CypA (200, 300 or 400 ng/ml: BioVendor R&D) was added to the culture supernatant of the monolayer-cultured bEnd.3 cells, followed by incubation for 3 hours. Subsequently, expression changes of claudin-5 in the bEnd.3 cells were observed by immunofluorescence staining, and claudin-5 signals on the cell membranes were quantified. Further, TEER, an index of vascular barrier function, was measured in the bEnd.3 cell monolayer.
The immunofluorescence staining was performed as follows. First, the cultured bEnd.3 cells were fixed with 100% methanol for 5 min at room temperature and incubated with 10% non-immune goat serum (Invitrogen) for 30 minutes to block non-specific binding of antibodies. Next, the cells were reacted with rabbit polyclonal antibodies against claudin-5 (1/25 dilution, Invitrogen) at 4° C. overnight. After washing with phosphate-buffered saline (PBS), the cells were incubated with Alexa Fluor 488 goat anti-rabbit IgG (1/200 dilution, Eugene) for 1 hour at room temperature under light protection. […] For a quantitative analysis, fluorescence intensities of claudin-5 on the plasma membranes were measured using an operation menu installed in LSMS Pascal6, 7.3. […] Fluorescence intensities were then quantified at points on the cell membranes that intersected the drawn straight lines. The mean value of the fluorescence intensities was calculated as an expression level of claudin-5 on the cell membranes of each monolayer at approximately 80 points. […]
The immunofluorescence staining, the quantification of the claudin-5 signals on the cell membranes, and the measurement of TEER in the bEnd.3 cell monolayer were performed in the same manner as in Example 1 except that CypA (300 ng/ml: BioVendor R&D) lacking PPlase activity was used as CypA. […]

bEnd.3 cell monolayer = assay: TEER (index of vascular barrier function) of the bEnd.3 cell monolayer; assay type: cell-based, mouse
Description: as §2
The immunofluorescence staining, the quantification of the claudin-5 signals on the cell membranes, and the measurement of TEER in the bEnd.3 cell monolayer were performed in the same manner as in Example 1 except that CypA (300 ng/ml: BioVendor R&D) lacking PPlase activity was used as CypA.
In order to evaluate the opening effect of CypA on the neural vascular barrier over time, the same experiment as in Example 1 was performed while changing the treatment time of CypA. Specifically, CypA at a concentration of 300 ng/ml was applied to the cells, followed by incubation for 1, 3, 6, 9, and 12 hours. Then, the cells were subjected to the immunofluorescence staining, the quantification of the claudin-5 signals on the cell membranes, and the measurement of TEER in the bEnd.3 cell monolayer.

[3] = test system: mouse retinal vasculature; assay: Permeability of the retinal vasculature (leakage of injected tracer dye, index of blood-retinal barrier function); assay type: in vivo; details: mouse retina, single intravenous injection 200 μg/kg
Description: as §1
First, 500 μL of PBS containing 100 μg/mL Hoechst dye H33258 (molecular weight 534 Da, Sigma-Aldrich) and 1 mg/mL tetramethylrhodamine-conjugated lysine-fixable dextran (molecular weight 10,000 Da, Thermo Fisher Scientific) was injected into the left ventricle as a tracer dye. After injection of the Hoechst dye, eyes were enucleated and immediately fixed with 4% paraformaldehyde (PFA) for 15 min at room temperature under light protection, thereby preparing retinal flat mounts. They were mounted in a fluorescent mounting medium, and leakage of the injected tracer was observed under a Zeiss LSM510 META laser confocal microscope (Carl Zeiss AG) to measure the permeability of the retinal vasculature (an index of blood-retinal barrier function). Experiments were performed independently 3 times or more.

COc1cccc2c1C(=O)c1c(O)c3c(c(O)c1C2=O)C[C@@](O)(C(=O)CO)C[C@@H]3O[C@H]1C[C@H](N)[C@H](O)[C@H](C)O1 [doxorubicin, Doxorubicin hydrochloride]
fluorescent signals of doxorubicin in the liver and the kidney (neural vascular barrier; mouse, doxorubicin hydrochloride 6.25 mg/kg i.v., 3 hours after injection, with or without pre-injection of CypA): strong fluorescent signals of doxorubicin were detected | doxorubicin fluorescence signal in the cerebrum (neural vascular barrier; mouse, doxorubicin hydrochloride 6.25 mg/kg i.v., 3 hours after injection, with preadministration of CypA 200 μg/kg i.v. 3 hours before): significant doxorubicin fluorescence signals were detected | doxorubicin fluorescence signal in the cerebrum (neural vascular barrier; mouse, doxorubicin hydrochloride 6.25 mg/kg i.v., 3 hours after injection, without preadministration of CypA): no doxorubicin fluorescence signal was detected

Cyclophilin A [CypA]
effect of CypA preadministration on delivery of doxorubicin to the neural tissue parenchyma (neural vascular barrier; mouse cerebrum, CypA 200 μg/kg i.v. 3 hours before doxorubicin hydrochloride 6.25 mg/kg i.v.): allowed the intravenously administered doxorubicin to pass through the neural vascular barrier and reach the neural tissue parenchyma | effect of CypA pre-injection on intensities of doxorubicin fluorescence signals in the liver and the kidney (neural vascular barrier; mouse, CypA 200 μg/kg i.v. 3 hours before doxorubicin hydrochloride 6.25 mg/kg i.v.): not significantly affected | expression level of claudin-5 in the cell membranes of the peripheral microvascular endothelial cells ([1]; 3 hours (FIG. 4a)): decrease | expression level of claudin-5 in the cell membranes of the peripheral microvascular endothelial cells ([1]; 24 hours (FIG. 4a)): recovered to a physiological level | claudin-5 level on the cell membranes ([2]; CypA 300 ng/ml, 3 hours after treatment (FIG. 3a, 3b)): decreased significantly | claudin-5 level on the cell membranes ([2]; CypA 300 ng/ml, 6 hours (FIG. 3a, 3b)): recovered to the level prior to the CypA stimulation | claudin-5 level on the cell membranes ([2]; CypA 200, 300 or 400 ng/ml, 3 hours after treatment (FIG. 1a, 1B)): significantly reduced | barrier function (TEER) (bEnd.3 cell monolayer; CypA 300 ng/ml, 3 hours after treatment (FIG. 3c)): significantly decreased | barrier function (TEER) (bEnd.3 cell monolayer; CypA 300 ng/ml, 6 hours (FIG. 3c)): recovered to the state prior to the CypA stimulation | barrier function (TEER) (bEnd.3 cell monolayer; CypA 200, 300 or 400 ng/ml, 3 hours after treatment (FIG. 1c)): significant reduction in the barrier function | leakage of the injected tracer dye ([3]; 3 hours (FIG. 4b)): increased | leakage of the injected tracer dye ([3]; 6 hours (FIG. 4b)): decreased after 6 hours as compared with after 3 hours | leakage of the injected tracer dye ([3]; 24 hours (FIG. 4b)): returned to an undetectable physiological level
